Results on seven molecules are retold here after patent publication US20210396738A1, “3D HUMAN CANCER MODEL-BASED COMBINATORIAL DRUG DEVELOPMENT METHOD” (PreComb Therapeutics AG, priority 2018, published 2021).

The test system of data set [1] is NSCLC microtumors (A549 NSCLC cells with human lung fibroblasts Wi38). Description: Non-small cell lung cancer (NSCLC) microtumor size/growth assay. The class given is cell-based. Particulars: for effect on NSCLC microtumor growth: dosed 2× for 8h with 48h gap (FIG. 6, FIG. 11); for Response: 14 days window; for efficacy: impact on tumor growth: Vinorelbin high concentration vs low and high concentrated Docetaxel, dosed 2× for 8h with an 8h gap (FIG. 13B, D). Here is the method: The NSCLC model was produced by mixing A549 NSCLC cells (ATCC® CCL-18S™) with human lung fibroblasts (Wi38, ATCC® CCL-7S™) in a non-adhesive 96-well plate (GravityTRAP™). Drugs were dosed 2× for 8h with 48h gap.
Single and drug combinations were dosed 2× for 8h with a gap of 48h and growth monitored over time.
(§1) FIG. 13 exemplifies tox testing of single drugs using connective/stromal microtissues (Wi38) and efficacy testing on non-small cell tumor microtissues (A549; Wi38). Vinorelbin and Docetaxel, both disrupting microtubule, were dosed 2× for 8h with an 8h gap.

For data set [2], the system named is microtumors from NSCLC cells directly derived from patients (NSCLC resection). The data set can be described thus: Patient-derived NSCLC microtumor growth assay. The class given is cell-based, human. As to conditions: dosed 2× for 8h with a 48h gap (FIG. 12). The protocol:
A NSCLC resection was dissociated, and the cell Suspension used to produce microtumors in a multi-well format (FIG. 12A). Drugs were dosed 2× for 8h with a 48h gap.

Data set [3] deals with pancreatic microtumors from pancreatic cancer cell line Panc-1 in co-culture with mouse fibroblast cell line NIH3T3. The data set can be described thus: Pancreatic microtumor (3D microtissue) size/growth assay. As to conditions: for Response: 14 days window; for ΔT14/ΔC14: day 14; for effect on pancreatic microtumor growth: dosed for 8h with a 48h gap (FIG. 5).
Description: Both cells were expanded in cell culture flasks using Dulbecco's modification of Eagle medium (DMEM) supplemented with 10% fetal calf serum. After reaching confluency the were removed from the cell culture flask enzymatic digestion (Trypsin). Cell numbers of both cell types were assessed using a Neubauer chamber, and the respective cell number mixed to produce the co-culture microtumors. Seventy ul of the cell mixture was inoculated in each well of a non-adhesive 96-well plates (GravityTRAP™) using Dulbecco's modification of Eagle medium (DMEM) supplemented with 10% horse serum. Pancreatic microtumors were matured in a mammalian cell culture incubator at 37° C. with 5% CO2. […] After 48 hours the drug was removed by changing the culture medium with drug-free medium. The size of the pancreatic microtumors was monitored prior dosing and continuously after dosing using bright field microscopy. Growth is presented relative to the size of the pancreatic tumor microtissue prior compound treatment t0 (adapted from the RECIST criteria).
All drugs used were dissolved according to the manufactures protocol.
The conditions of data set [4]: reference cmax used for potency; cited from earlier work.
Data set [5] concerns connective/stromal microtissues (Wi38). Description: Tox testing on connective/stromal microtissues. The class given is cell-based, human. As to conditions: dosed 2× for 8h with an 8h gap (FIG. 13A, C). Here is the method:
as §1

Entries after “also recorded” stand apart in the source; their conditions may differ. Like-named read-outs stand apart in the source and are kept apart here. Bounds are passed on as bounds.

As to `C#Cc1cccc(Nc2ncnc3cc(OCCOC)c(OCCOC)cc23)c1` [Erlotinib], in data set [1], the “effect on NSCLC microtumor growth” value is listed as “reduced growth”. The “time after which growth relapses” value in data set [1] (dosed 2× for 8h with a gap of 48h (FIG. 11)) is on record as more than 7 days. The “impact on tumor growth, single doses” value in data set [2] is on record as “hardly an impact on tumor growth”.

`CCc1c2c(nc3ccc(OC(=O)N4CCC(N5CCCCC5)CC4)cc13)-c1cc3c(c(=O)n1C2)COC(=O)[C@]3(O)CC` [Irinotecan]: the Response entry is listed as “PR (≥20%-100% increase in microtumor size)” in data set [3] (Irinotecan 0.675 ug/ml), “SR (+/−20% increase/decrease in size)” in data set [3] (Irinotecan 6.75 ug/ml), “RE (≥20% decrease in microtumor size)” in data set [3] (Irinotecan 67.5 ug/ml) and “RE (≥20% decrease in microtumor size)” in data set [1] (Irinotecan 27 ug/ml). For the same molecule, the ΔT14/ΔC14 is listed as 1.04 in data set [3] (Irinotecan 0.675 ug/ml); 0.06 in data set [3] (Irinotecan 6.75 ug/ml); −0.36 in data set [3] (Irinotecan 67.5 ug/ml); −0.32 in data set [1]; −0.60 in data set [1] (Irinotecan 6.75 ug/ml, day 14); −3.09 in data set [1] (Irinotecan 27 ug/ml, day 14). Further, the “Time to MR (TMR)” value in data set [3] (Irinotecan 6.75 ug/ml) amounted to 7 days; in data set [3] (Irinotecan 67.5 ug/ml), 14 days; in data set [1] (Irinotecan 6.75 ug/ml), 4 days; in data set [1] (Irinotecan 27 ug/ml), 14 days. For the same molecule, the “Time until relapse (TR)” value in data set [3] (Irinotecan 6.75 ug/ml) is 7 days; in data set [1] (Irinotecan 6.75 ug/ml), 5 days. The “dose to growth correlation” value in data set [3] (indicated concentrations, drug removed after 48 hours, growth relative to size at t0 (FIG. 4)) is “clear correlation of dose to growth”. In addition, the median cmax entry in data set [4] is listed as “(median cmax = 5 ug/ml)”.

For the molecule `CC(=O)O[C@@]12CO[C@@H]1C[C@H](O)[C@@]1(C)C(=O)[C@H](O)C3=C(C)[C@@H](OC(=O)[C@H](O)[C@@H](NC(=O)OC(C)(C)C)c4ccccc4)C[C@@](O)([C@@H](OC(=O)c4ccccc4)[C@H]21)C3(C)C` [Docetaxel], the “cytotoxicity on stromal microtissues compared to untreated control” value in data set [5] (4.05 ug/ml) is listed as “less toxicity”. The “effect on pancreatic microtumor growth” value in data set [3] was “much slower”. Also, in data set [3] (dosed for 8h with a 48h gap, compared with Gemcitabine (FIG. 5A)), the sustainability of response result is on record as “more sustainable”. The “efficacy: impact on tumor growth” value in data set [1] is on record as “higher efficacy”.

As to `O=C1CCC(N2C(=O)c3ccccc3C2=O)C(=O)N1` (stereo not drawn) [Thalidomide], in data set [1], the “effect on NSCLC microtumor growth” value is listed as “no significant impact on tumor growth remission”. Moreover, the “impact on tumor growth, single doses” value in data set [2] is listed as “hardly an impact on tumor growth”.

As for `CCC1=C[C@@H]2CN(C1)Cc1c([nH]c3ccccc13)[C@@](C(=O)OC)(c1cc3c(cc1OC)N(C)[C@H]1[C@@](O)(C(=O)OC)[C@H](OC(C)=O)[C@]4(CC)C=CCN5CC[C@]31[C@@H]54)C2` [Vinorelbin], in data set [5] (high dose 0.68 ug/ml), the “cytotoxicity on stromal microtissues compared to untreated control” value is given as “elevated cytotoxicity”. Moreover, the “efficacy: impact on tumor growth” value in data set [1] is recorded as “less impact on tumor growth”.

As for `Nc1nc2[nH]cc(CCc3ccc(C(=O)N[C@@H](CCC(=O)O)C(=O)O)cc3)c2c(=O)[nH]1` [Pemetrexed], the “effect on pancreatic microtumor growth” value in data set [3] is reported as “did not affect tumor growth; also recorded: not active”. The “effect on NSCLC microtumor growth” value in data set [1] is “tumor remission”.

Consider `Nc1ccn([C@@H]2O[C@H](CO)[C@@H](O)C2(F)F)c(=O)n1` [Gemcitabine], for which the “Time to MR (TMR)” value in data set [3] (Gemcitabine 0.1 ug/ml) was 10 days; in data set [3] (Gemcitabine 0.5 ug/ml), 10 days; in data set [1] (Gemcitabine 0.1 ug/ml), 14 days; in data set [1] (Gemcitabine 0.3 ug/ml) it was 14 days; in data set [1] (Gemcitabine 0.5 ug/ml), 14 days. Besides, the “Time until relapse (TR)” value in data set [3] (Gemcitabine 0.1 ug/ml) and in data set [3] (Gemcitabine 0.5 ug/ml) was 10 days in each case. In addition, the Response result in data set [3] (Gemcitabine 0.1 ug/ml) is “SR (+/−20% increase/decrease in size)”; in data set [3] (Gemcitabine 0.5 ug/ml), “SR (+/−20% increase/decrease in size)”; in data set [1] (Gemcitabine 0.1 ug/ml) it was “RE (≥20% decrease in microtumor size)”; in data set [1] (Gemcitabine 0.3 ug/ml), “RE (≥20% decrease in microtumor size)”; in data set [1] (Gemcitabine 0.5 ug/ml) it was “RE (≥20% decrease in microtumor size)”. Moreover, the ΔT14/ΔC14 in data set [3] (Gemcitabine 0.1 ug/ml, treatment effect to untreated control) is on record as −0.25; in data set [3] (Gemcitabine 0.5 ug/ml) it was −0.23; in data set [1] (Gemcitabine 0.1 ug/ml, day 14) it was −2.72; in data set [1] (Gemcitabine 0.3 ug/ml, day 14), −4.04; in data set [1] (Gemcitabine 0.5 ug/ml, day 14), −3.87. In data set [3], the “effect on pancreatic microtumor growth” value is recorded as “unfolds its effect quickly”. In addition, the “day after which treated microtumors relapsed” value in data set [3] (dosed for 8h with a 48h gap (FIG. 5A)) was more than 10 days. Moreover, the median cmax result in data set [4] was “(median cmax = 20 ug/ml)”.
